# Tests used:
# Format in all cases: physicochemical
# [1] = Piperidine deblocking of bis(9-fluorenyl)methyl carbanilate; settings: piperidine 48.5 eq., anhydrous ether, room temperature
# Procedure: B. Piperidine Deblocking of Bis(9-fluorenyl)methyl Carbanilate: To a suspension of 20 mg (0.042 mmol) of αF-Fmoc-analine in 0.2 mL of anhydrous ether was added 0.2 mL (2.02 mmol, 48.5 eq.) of piperidine. The mixture was stirred at room temperature and monitored by TLC with an eluant consisting of Skelly B--CH2 Cl2 (1:1). […] No attempt was made to isolate the individual component of the final reaction mixture.
# [2] = Stability of difluorenyl derivatives in trifluoroacetic acid; settings: TFA 500 eq.
# Procedure: C. Stability of FM-Fmoc-analine in Trifluoroacetic Acid: To a solution of 51.3 mg of FM-Fmoc-analine in 6 mL of CHCl3 was added 4 mL (500 eq.) of trifluoroacetic acid. The mixture was stirred at room temperature and monitored by TLC with an eluant consisting of Skelly B--ether (2:1). No change was noted after two days. The mixture was diluted with 10 mL of chloroform, and washed with H2 O (2×15 mL) and sat'd NaHCO3 (2×15 mL). […] 241°-243° C., the ^1 H NMR and IR spectra of which matched that of an authentic sample.
# D. Stability of Bis(9-fluorenyl)methyl Carbanilate Towards Trifluoroacetic Acid: To a solution of 100 mg of α-F-Fmoc-analine in 12 mL of chloroform was added 8 mL (500 eq.) of trifluoroacetic acid. The mixture was stirred at room temperature and monitored by TLC with an eluant consisting of Skelly B--ether (2:1). No change was noted after 24 hours. The mixture was washed with water (2×10 mL), sat'd NaHCO3 (3×10 mL), and water (10 mL). […] 223°-226° C. (dec.), the ^1 H NMR and IR spectra of which matched that of an authentic sample.
# [3] = HPLC monitoring of the deblocking of Nε-(9-xanthenylmethoxycarbonyl)-L-lysine by TBD; settings: TBD 20 eq., pyridine and DMF, room temperature
# Procedure: B. HPLC Monitoring of the Deblocking of N^ε -(9-Xanthenylmethoxycarbonyl)-L-lysine by TBD: A mixture of […] of H-Lys(Xmoc)-OH and 150 mg (20 eq.) of 1,5,9-triazabicyclo[4,4,0]dec-5-ene (TBD) in 0.3 mL of pyridine and 0.3 mL of DMF was stirred at room temperature. A 20 μL portion of the mixture was neutralized with a solution of 0.3 mL of 5% HCl and 0.3 mL of methanol, filtered, and injected for HPLC analysis which was carried out on a Waters Radial Pak 10-μm C18 reverse phase column (0.8×10 cm) under the following conditions:
# Mobile phase: 65% methanol and 35% TFA (0.1% in water)
# [4] = Stability of FM-Fmoc-aniline towards catalytic hydrogenolysis; settings: 5% Pd/C, 45 psi hydrogen, 24 hours
# Procedure: E. Stability of FM-Fmoc-aniline Towards Catalytic Hydrogenolysis: To a mixture of 100 mg of FM-Fmoc-aniline and 63.9 mg of Fmoc-aniline in 30 mL of freshly distilled THF and 15 mL of 100% EtOH was added 30 mg of 5% palladium on charcoal. The mixture was shaken under hydrogen at a pressure of 45 psi in a Parr apparatus for 24 hours. […] Recrystallization of the latter from ethyl acetate gave 89.1 mg (89.1%) of the pure FM-Fmoc-anilineas white crystals, m.p. 243°-244° C. the ^1 H NMR and IR spectra of which matched that of an authentic sample.
# [5] = Stability of xanthenylmethyl and dihydroanthracenylmethyl derivatives in trifluoroacetic acid; settings: TFA 40 eq., deuterated chloroform, room temperature, 3 days
# Procedure: 3. Stability of Xanthenylmethyl p-Chlorocarbanilate in Trifluoroacetic Acid: To a solution of 35.61 mg of Xmoc-PCA in 0.2 mL of deuterated chloroform was added 0.3 mL (40 eq.) of trifluoroacetic acid. The mixture was transferred to an NMR tube and allowed to stand at room temperature. The reaction was monitored by NMR spectroscopy (Varian A-60A, 60 MHz) and TLC with an eluant consisting of Skelly B--ethyl acetate (4:1). No change was noted after 3 days.
# 4. Stability of 9-Xanthenylmethyl Phenylacetate in Trifluoroacetic Acid: To a solution of 21.4 mg of 9-XM phenylacetate in 0.2 mL of deuterated chloroform was added 0.2 mL (40 eq.) of trifluoroacetic acid. The mixture was transferred to an NMR tube and let stand at room temperature. The reaction was monitored by NMR (Varian A-60A, 60 MHz) spectroscopy and TLC analysis with an eluant consisting of Skelly B--ether (2:1). No change was noted after 3 days.
# 1. Stability of 9,10-Dihydro-9-anthracenylmethyl p-Chlorocarbanilate in Trifluoroacetic Acid: To a solution of 23.61 mg of DHAmoc-PCA in 0.2 mL of deuterated chloroform was added 0.2 mL (40 eq.) of trifluoroacetic acid. The mixture was transferred to an NMR tube and allowed to stand at room temperature. The reaction was monitored by NMR spectroscopy (Varian A-60A, 60 MHz) and TLC with an eluant consisting of Skelly B--EtOAc (3:1). No change was noted after 4 days.
# [6] = Base deblocking and stability of 9-xanthenylmethyl and 9,10-dihydro-9-anthracenylmethyl derivatives; settings: room temperature
# Procedure: 1. Deblocking of Xmoc-PCA in 1,5,9-Triazabicyclo[4,4,0]dec-5-ene Solution: To a solution of 7.90 mg (0.0216 mmol) of Xmoc-PCA in 0.6 mL of pyridine was added 0.15 g (1.078 mmol 50 eq.) of 1,5,9-triazabicyclo[4,4,0]dec-5-ene (TBD). The mixture was stirred at room temperature and monitored by TLC with an eluant consisting of Skelly B--EtOAc (3:1). Complete deblocking had occurred after 25 minutes.
# 2. Base Deblocking of 9-Xanthenylmethyl Phenylacetate: a. In Piperdine Solution: To a solution of 13.39 mg of 9-XM-phenylacetate in 1.6 mL of DMF was added 0.4 mL (100 eq.) of piperidine. The mixture was stirred at room temperature. […] In DBU Solution: To a solution of 6.36 mg of 9-XM-phenylacetate in 0.9 mL of DMF was added 0.3 mL of 1,8-diazabicyclo[5,4,0]-undec-7-ene (DBU) (100 eq.). The mixture was stirred at room temperature. […] In TBD Solution: To a solution of 7.91 mg of 9-XM-phenylacetate in 0.3 mL of pyridine was added 100 mg (30 eq.) of 1,5,9-triazabicyclo[4,4,0]dec-5-ene. The mixture was stirred at room temperature.
# 1. General Procedure for Studying the Stabilities of DHAmoc-PCA, Xmoc-PCA, and DC-Xmoc-PCA in Piperidine Solution To a solution of urethane (0.0294 mmol) in 1.2 mL of DMF was added 0.3 mL (2.94 mmol, 100 eq.) of piperidine. The mixture was stirred at room temperature and monitored by TLC with an eluant consisting of Skelly B--EtOAc (3:1). Evidence for initiation of the deblocking required 2 minutes for DC-Xmoc-PCA, 3.5 hours for Xmoc-PCA, and 7 hours for DHAmoc-PCA.
# 2. General Procedure for Studying the Deblocking of Xmoc-PCA and DHAmoc-PCA in DBU Solution: To a solution of urethane (0.0324 mmol) in 0.5 mL of DMF was added 0.5 mL (3.24 mmol, 100 eq.) of 1,8-diazabicyclo[5,4,0]undec-7-ene. The mixture was stirred at room temperature and monitored by TLC with the eluant consisting of Skelly B--EtOAc (3:1). The time needed to complete the deblocking was 3.5 hours for Xmoc-PCA, and 6 hours for DHAmoc-PCA.
# [7] = Stability of substituted Fmoc-PCA in acetic acid; settings: glacial acetic acid 10 eq., CH2Cl2, room temperature, 48 hours
# Procedure: 2. […] The mixture was stirred at room temperature for 48 hours. […] The mixture was washed with half sat'd NaHCO3 (2×10 mL) and water (10 mL). […] 161°-163° C., the IR and ^1 H NMR spectra of which matched that of an authentic sample.
# 3. Stability of 9-Trimethylsilyl-9-[…] p-Chlorocarbanilate in Acetic Acid: To a solution of 0.37 g of TMS-Fmoc-PCA in 10 mL of CH2 Cl2 was added 0.5 mL (10 eq.) of glacial acetic acid. The mixture was stirred at room temperature. […] The mixture was washed with half sat'd NaHCO3 (2×10 mL) and H2 O (10 mL). […] 124°-126° C., the ^1 H NMR and IR spectra of which matched that of an authentic sample.
# [8] = Base deblocking of substituted urethanes (U-PCA) by various amines; settings: dichloromethane, room temperature
# Description: 1. General Procedure for Studying the Base Deblocking of the Urethanes Fmoc-PCA, BTS-Fmoc-PCA, DT-Fmoc-PCA, and TMS-Fmoc-PCA: A mixture of urethane (0.05 mmol) in a solution prepared from an equal volume of base (2.5 mmol, 50 eq.) and dichloromethane was stirred at room temperature. The course of the reaction was monitored by TLC with an eluant consisting of Skelly B--ether (3:1).
# [9] = Protolysis of BTS-Fmoc-PCA in trifluoroacetic acid; settings: TFA 10.7 eq., CH2Cl2, room temperature, 12 hours
# Procedure: 4. Protolysis of 2,7-Bis(trimethylsilyl)-9-fluoroenylmethyl p-Chlorocarbanilate in Trifluoroacetic Acid: To a solution of 0.3 g of BTS-Fmoc-PCA in 8 mL of CH2 Cl2 was added dropwise a solution of 0.5 mL (10.7 eq.) of trifluoroacetic acid in 3.0 mL of methylene chloride over a period of 10 minutes. The mixture was stirred at room temperature for 12 hours, washed with water (2×10 mL), and neutralized with sat'd NaHCO3 (2×10 mL). […] Recrystallization from EtOAc--Skelly B (2:1) gave 0.16 g (75.3%) of the pure urethane as colorless needles, m.p. 184°-185° C., identified by mixture melting point, and IR and NMR spectral comparisons with an authentic sample.
# [10] = chloroform, room temperature, 24 hours
# [11] = CHCl3, room temperature, two days
structure (smiles),measurement,setting,value
"O=C(Nc1ccccc1)OC(C1c2ccccc2-c2ccccc21)C1c2ccccc2-c2ccccc21 [α-F-Fmoc-aniline, Bis(9-fluorenyl)methyl Carbanilate]",time for total decomposition of the urethane,[1],≤ 10 min
same,recovered urethane,[2]; [10],98.3%
same,stability in trifluoroacetic acid (TLC),[2]; [10],No change
"N[C@@H](CCCCNC(=O)OCC1c2ccccc2Oc2ccccc21)C(=O)O [H-Lys(Xmoc)-OH, N^ε -(9-Xanthenylmethoxycarbonyl)-L-lysine]",time after which no starting material was left (HPLC),[3],≤ 4.5 h
"O=C(Nc1ccccc1)OCC1(CC2c3ccccc3-c3ccccc32)c2ccccc2-c2ccccc21 [FM-Fmoc-aniline, 9-(9'-Fluorenylmethyl)-9-fluorenylmethyl Carbanilate]",recovered urethane,[2]; [11],97.1%
same,stability in trifluoroacetic acid (TLC),[2]; [11],No change
same,recovered urethane,[4],99.4%
"O=C(Cc1ccccc1)OCC1c2ccccc2Oc2ccccc21 [9-XM-phenylacetate, 9-Xanthenylmethyl Phenylacetate]","stability in trifluoroacetic acid (NMR, TLC)",[5],No change
same,Time for Complete Deblocking,"[6]; DBU 100 eq., DMF",≤ 90 min
same,Time for Complete Deblocking,"[6]; TBD 30 eq., pyridine",≤ 27 min
same,stability in piperidine solution (TLC),"[6]; piperidine 100 eq., DMF, 2 days",no change
"C[Si](C)(C)c1ccc2c(c1)C(COC(=O)Nc1ccc(Cl)cc1)c1cc([Si](C)(C)C)ccc1-2 [BTS-Fmoc-PCA, 2,7-Bis(trimethylsilyl)-9-fluorenylmethyl p-Chlorocarbanilate]",recovered urethane,[7],95.35%
same,stability in acetic acid (TLC),[7],no change
same,Time for Complete Deblocking,[8]; ethanolamine 50 eq.,90 min
same,Time for Complete Scavenging of Dibenzofulvene Analogs,[8]; morpholine 50 eq.,3.5 hr
same,Time for Complete Deblocking,"[8]; morpholine 50 eq., significant aminodibenzofulvene type adduct formed",190 min
same,Time for Complete Scavenging of Dibenzofulvene Analogs,[8]; piperidine 50 eq.,40 min
same,Time for Complete Deblocking,"[8]; piperidine 50 eq., significant aminodibenzofulvene type adduct formed",< 3 min
same,Time for Complete Deblocking,[8]; t-butylamine 50 eq.,270 min
same,product of protolysis in trifluoroacetic acid,[9],9-fluorenylmethyl p-chlorocarbanilate

# From US5101059A, “Amino acid protecting groups” (Research Corporation Technologies, Inc., priority 1989, dated 1992)
